# Measurements: PubChem BioAssay AID1963837 (Molecular Pharmacology Branch, DTP, NCI, 2024)
# Test system: 843126-344-R-J1-PDC complex spheroid viability
# Assay: Anticancer human tumor 843126-344-R-J1-PDC patient-derived melanoma cell line growth inhibition [POLQ]
# Conditions: for IC50: curve of first compound; for viability, T/C: stronger effect = lower value
# Summary of the method: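 Complex spheroid viability model combining PDC tumour cells with endothelial (HUVEC) and MSC stromal cells. Novobiocin, ART-558 or RP6685 were tested singly and in combination with standard and investigational anticancer drugs. Each was titrated in half-log steps from near clinical Cmax, or from 10 microM where Cmax was unknown.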
# [1] = second compound 0.0316 µM, first compound 0.0316 µM
# [2] = second compound 0.0316 µM, first compound 0.1 µM
# [3] = second compound 0.0316 µM, first compound 0.316 µM
# [4] = second compound 0.0316 µM, first compound 1 µM
# [5] = second compound 0.0316 µM, first compound 3.16 µM
# [6] = second compound 0.0316 µM, first compound 10 µM
# [7] = second compound 0.1 µM, first compound 0.0316 µM
# [8] = second compound 0.1 µM, first compound 0.1 µM
# [9] = second compound 0.1 µM, first compound 0.316 µM
# [10] = second compound 0.1 µM, first compound 1 µM
# [11] = second compound 0.1 µM, first compound 3.16 µM
# [12] = second compound 0.1 µM, first compound 10 µM
# [13] = second compound 0.316 µM, first compound 0.0316 µM
# [14] = second compound 0.316 µM, first compound 0.1 µM
# [15] = second compound 0.316 µM, first compound 0.316 µM
# [16] = second compound 0.316 µM, first compound 1 µM
# [17] = second compound 0.316 µM, first compound 3.16 µM
# [18] = second compound 0.316 µM, first compound 10 µM
# [19] = second compound 1 µM, first compound 0.0316 µM
# [20] = second compound 1 µM, first compound 0.1 µM
# [21] = second compound 1 µM, first compound 0.316 µM
# [22] = second compound 1 µM, first compound 1 µM
# [23] = second compound 1 µM, first compound 3.16 µM
# [24] = second compound 1 µM, first compound 10 µM
# [25] = second compound 3.16 µM, first compound 0.0316 µM
# [26] = second compound 3.16 µM, first compound 0.1 µM
# [27] = second compound 3.16 µM, first compound 0.316 µM
# [28] = second compound 3.16 µM, first compound 1 µM
# [29] = second compound 3.16 µM, first compound 3.16 µM
# [30] = second compound 3.16 µM, first compound 10 µM
# [31] = second compound 10 µM, first compound 0.0316 µM
# [32] = second compound 10 µM, first compound 0.1 µM
# [33] = second compound 10 µM, first compound 0.316 µM
# [34] = second compound 10 µM, first compound 1 µM
# [35] = second compound 10 µM, first compound 3.16 µM
# [36] = second compound 10 µM, first compound 10 µM
# 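Wherever viability, T/C is given: spheroids exposed to drugs for seven days before readout.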
compound,measurement,setting,value
CC1COCCN1c1cc(C2(O)CC3CCC(C2)O3)c2cnn(-c3ccn[nH]3)c2n1 (stereo unspecified) + Nc1ccc(C#CCN(C(=O)Cc2ncc(C(F)(F)F)cc2C(F)(F)F)c2ccc(F)cc2)nn1,IC50,second compound 0.0316 µM,390 nM
same,IC50,second compound 0.1 µM,435 nM
same,IC50,second compound 0.316 µM,369 nM
same,IC50,second compound 1 µM,312 nM
same,IC50,second compound 3.16 µM,344 nM
same,IC50,second compound 10 µM,210 nM
same,"viability, T/C",[1],82.7%
same,"viability, T/C",[2],65.4%
same,"viability, T/C",[3],54.9%
same,"viability, T/C",[4],37.2%
same,"viability, T/C",[5],29.7%
same,"viability, T/C",[6],20.2%
same,"viability, T/C",[7],74.5%
same,"viability, T/C",[8],79.2%
same,"viability, T/C",[9],51.6%
same,"viability, T/C",[10],37.6%
same,"viability, T/C",[11],31.9%
same,"viability, T/C",[12],22%
same,"viability, T/C",[13],73.2%
same,"viability, T/C",[14],69.9%
same,"viability, T/C",[15],49.1%
same,"viability, T/C",[16],36.5%
same,"viability, T/C",[17],28%
same,"viability, T/C",[18],17.9%
same,"viability, T/C",[19],85.9%
same,"viability, T/C",[20],64.7%
same,"viability, T/C",[21],48.5%
same,"viability, T/C",[22],38.8%
same,"viability, T/C",[23],28.7%
same,"viability, T/C",[24],18.7%
same,"viability, T/C",[25],79.1%
same,"viability, T/C",[26],70.1%
same,"viability, T/C",[27],46.6%
same,"viability, T/C",[28],38.6%
same,"viability, T/C",[29],29.1%
same,"viability, T/C",[30],19.6%
same,"viability, T/C",[31],71.5%
same,"viability, T/C",[32],56.7%
same,"viability, T/C",[33],47.8%
same,"viability, T/C",[34],33%
same,"viability, T/C",[35],26.7%
same,"viability, T/C",[36],20.1%
CCc1cc2c(N3CCc4c(cc(Cn5ccnc5)cc4-c4cn(C)nc4C(F)(F)F)C3=O)cc(C)nc2c(OC)n1 + Cc1cccc(N(C)C(=O)C2C(O)CCN2c2nc(C)cc(C(F)(F)F)c2C#N)c1,IC50,second compound 0.0316 µM,> 10000 nM
same,IC50,second compound 0.1 µM,> 10000 nM
same,IC50,second compound 0.316 µM,> 10000 nM
same,IC50,second compound 1 µM,> 10000 nM
same,IC50,second compound 3.16 µM,> 10000 nM
same,IC50,second compound 10 µM,> 10000 nM
same,"viability, T/C",[1],90.8%
same,"viability, T/C",[2],92.8%
same,"viability, T/C",[3],80.9%
same,"viability, T/C",[4],77.7%
same,"viability, T/C",[5],72.4%
same,"viability, T/C",[6],61.9%
same,"viability, T/C",[7],99%
same,"viability, T/C",[8],88.5%
same,"viability, T/C",[9],79%
same,"viability, T/C",[10],79.9%
same,"viability, T/C",[11],71.5%
same,"viability, T/C",[12],64.1%
same,"viability, T/C",[13],94.3%
same,"viability, T/C",[14],93.2%
same,"viability, T/C",[15],82.4%
same,"viability, T/C",[16],72.3%
same,"viability, T/C",[17],69.8%
same,"viability, T/C",[18],62.3%
same,"viability, T/C",[19],85.4%
same,"viability, T/C",[20],89.5%
same,"viability, T/C",[21],77.3%
same,"viability, T/C",[22],70%
same,"viability, T/C",[23],75.5%
same,"viability, T/C",[24],63.8%
same,"viability, T/C",[25],90.8%
same,"viability, T/C",[26],86%
same,"viability, T/C",[27],87.7%
same,"viability, T/C",[28],70.9%
same,"viability, T/C",[29],77.8%
same,"viability, T/C",[30],56.8%
same,"viability, T/C",[31],92%
same,"viability, T/C",[32],79.9%
same,"viability, T/C",[33],80%
same,"viability, T/C",[34],74.2%
same,"viability, T/C",[35],82.5%
same,"viability, T/C",[36],54.4%
CCc1c2c(nc3ccc(O)cc13)-c1cc3c(c(=O)n1C2)COC(=O)[C@]3(O)CC + Cc1cccc(N(C)C(=O)C2C(O)CCN2c2nc(C)cc(C(F)(F)F)c2C#N)c1,IC50,second compound 0.0316 µM,991 nM
same,IC50,second compound 0.1 µM,749 nM
same,IC50,second compound 0.316 µM,400 nM
same,IC50,second compound 1 µM,> 1000 nM
same,IC50,second compound 3.16 µM,> 1000 nM
same,IC50,second compound 10 µM,> 1000 nM
same,"viability, T/C","second compound 0.0316 µM, first compound 0.00316 µM",73%
same,"viability, T/C","second compound 0.0316 µM, first compound 0.01 µM",52.8%
same,"viability, T/C",[1],66.4%
same,"viability, T/C",[2],67.3%
same,"viability, T/C",[3],54.6%
same,"viability, T/C",[4],50.5%
same,"viability, T/C","second compound 0.1 µM, first compound 0.00316 µM",72.8%
same,"viability, T/C","second compound 0.1 µM, first compound 0.01 µM",52.8%
same,"viability, T/C",[7],60.6%
same,"viability, T/C",[8],58.8%
same,"viability, T/C",[9],60.8%
same,"viability, T/C",[10],42.8%
same,"viability, T/C","second compound 0.316 µM, first compound 0.00316 µM",70.5%
same,"viability, T/C","second compound 0.316 µM, first compound 0.01 µM",61.6%
same,"viability, T/C",[13],58.3%
same,"viability, T/C",[14],58.6%
same,"viability, T/C",[15],53.6%
same,"viability, T/C",[16],43.6%
same,"viability, T/C","second compound 1 µM, first compound 0.00316 µM",66.6%
same,"viability, T/C","second compound 1 µM, first compound 0.01 µM",58.5%
same,"viability, T/C",[19],55.1%
same,"viability, T/C",[20],60.9%
same,"viability, T/C",[21],59.6%
same,"viability, T/C",[22],44.6%
same,"viability, T/C","second compound 3.16 µM, first compound 0.00316 µM",67.5%
same,"viability, T/C","second compound 3.16 µM, first compound 0.01 µM",60.9%
same,"viability, T/C",[25],50.3%
same,"viability, T/C",[26],67.7%
same,"viability, T/C",[27],66.1%
same,"viability, T/C",[28],45.7%
same,"viability, T/C","second compound 10 µM, first compound 0.00316 µM",64.8%
same,"viability, T/C","second compound 10 µM, first compound 0.01 µM",68.3%
same,"viability, T/C",[31],67%
same,"viability, T/C",[32],66.2%
same,"viability, T/C",[33],58.6%
same,"viability, T/C",[34],47.8%
